The values that follow come from article PMC12909347, “Disconnect between in vitro and in vivo efficacy of the MPS1 inhibitor NTRC 0066-0 against glioblastoma” (Cellular Oncology, 2026).

SMILES strings stand for the structures.

The subject of one series is P-gp. Set-up: method as in PMID 26153498. The following applies: calcein-AM efflux assay; cited from earlier work.
The subject of series [1] is orthotopic E98 GBM tumors. The series is described as follows: Orthotopic E98 GBM xenograft efficacy in Abcb1a/b;Abcg2-/- mice. It counts as in vivo. As to the method:
Orthotopic GBM tumors were induced in Abcb1a/b; Abcg2^−/− mice by stereotactic injection of E98 cells expressing firefly luciferase (200,000 cells in 2 µL HBSS (Life Technologies) at an injection speed of 1 µL/min) at 2 mm lateral, 1 mm anterior and 3 mm ventral to the bregma. Tumor growth was monitored using bioluminescence imaging by injecting D-luciferin (150 mg/kg i.p.; Promega, Madison, WI) and subsequently imaging mice on an IVIS Spectrum Imaging System (PerkinElmer, Waltham, MA). Survival was monitored daily and the humane endpoint was defined as body weight loss exceeding 20%. Time-to-recurrence was defined as the number of days elapsed until the tumor regained its pre-treatment size. Tumors were treated with CT-guided radiotherapy (2–3.5 Gy per fraction) using an X-RAD 225Cx system (Precision X-Ray, North Branford, CT), temozolomide (10 mg/kg p.o. freshly prepared from powder in an aqueous solution containing 10% v/v ethanol), NTRC0066-0 (20, 10 or 5 mg/kg p.o. in an aqueous solution containing 10% v/v DMSO and 10% v/v Cremophor EL (Life Technologies)) or different combinations thereof, as described per experiment in the Figure legends.

Series [2] deals with orthotopic E98 GBM tumors. The series is described as follows: Quantification of mitotic errors in E98 tumors. It counts as in vivo, mice. The conditions noted are these: end-stage E98 tumors, 5/10 mg/kg b.i.d.x7d. Here is the method: Tumor-bearing mouse brains were formalin-fixed, paraffin-embedded and coronal Sect. (10 μm) were sliced using an RM2255 microtome (Leica, Wetzlar, Germany). Sections were subsequently deparaffinized using xylene, incubated in citrate buffer for antigen retrieval, blocked with 4% (w/v) BSA in TBS-T, incubated with rabbit-α-pH3^Ser10 (1:250 for 3 h at room temperature; Merck Millipore, Burlington, MA), incubated with goat-α-rabbit-AF568 (1:250 for 45 min at room temperature; Thermo Fisher Scientific, Waltham, MA) and mounted with Vectashield hardset antifade mounting medium with DAPI (Vector Laboratories, Burlingame, CA). Mitotic errors were imaged and scored using a Deltavision ultra high resolution microscope (Applied Precision Inc., Issaquah, WA).

In the next series the test system is U87. Put plainly: Cell survival assay (crystal violet), continuous exposure. Format: cell-based, human. The following applies: Fig. 1A. Here is the method: (§1) Wells were pre-coated with poly-ornithine (15 µg/ml for 3 h at room temperature) and subsequently with laminin (7.5 µg/ml for 1 h at 37 °C) prior to seeding GSCs to make them adherent without inducing differentiation. […] Cells were plated in 24-wells plates at low cell densities (2,000–10,000 cells/well) and exposed to different concentrations of NTRC0066-0 24 h later. NTRC0066-0 was dissolved in DMSO (Sigma-Aldrich) for in vitro experiments and final DMSO concentrations never exceeded 0.1%. When untreated wells were confluent (approximately 6–10 days after seeding, dependent on the cell line), cells were fixed and stained using a solution containing 0.5% crystal violet (w/v; Sigma-Aldrich) and 6% glutaraldehyde (v/v; Honeywell, Morris Plains, NJ). Plates were imaged using a Chemi-Doc XRS+ (Bio-rad, Hercules, CA) and analyzed using the Colony Area plugin of ImageJ [24]. IC50 curves were fitted and plotted using the ‘log(inhibitor) vs. normalized response – Variable slope’ fitting procedure of GraphPad Prism v10.3 (GraphPad Software, La Jolla, CA). Monotherapy curves were corrected for untreated controls.

A further series has as its system LN-428. The description is as above. Format: cell-based, human. The following applies: LN-428, continuous exposure, Fig. 1A. Here is the method: as §1
Another series deals with MELpT-KNL1. The series is described as follows: MELpT-KNL1 foci in E98 tumors (target inhibition). Format: in vivo, mice. The following applies: last day of 5/10 mg/kg b.i.d.x7d schedule. Here is the method:
Mouse heads were fixed in 4% (v/v) formaldehyde and 5% (v/v) glacial acetic acid overnight, and subsequently decalcified in 6.5% (v/v) formic acid at 37 °C for 4 days. Decalcified tissues were paraffin embedded and cut into 4 μm coronal sections that were stained with hematoxylin and eosin (H&E), and for human Vimentin (1:4,000; M0725; DakoCytomation; Glostrup, Denmark), P-gp (1:200; 13978; Cell Signaling Technology; Danvers, MA), BCRP (1:400; ab24115; Abcam; Cambridge, UK), mouse IgG (K4001, Dako) and MELpT-KNL1 (1:50; as described previously). Sections were imaged and processed using an Aperio AT2 system and ImageScope software (v12; both Leica). MELpT-KNL1 foci were imaged using an Axio Observer Z1 system (Carl Zeiss AG; Oberkochen, Germany).

The subject of a further series is GSC750. The series is described as follows: Cell survival assay, glioma stem cell line. Format: cell-based, murine. The following applies: GSC750 (EgfrvIII;p15Ink4b/p16Ink4a-/-), Fig. 1C.
Description: (§2) All cell lines were authenticated using STR profiling. The serum-cultured GBM cell lines U87 (RRID: CVCL_0022) and HS683 (RRID: CVCL_0844) were purchased from the ATCC (Manassas, VA), T98G (RRID: CVCL_0556) and LN-428 (RRID: CVCL_3959) cells were kindly provided by Dr. Conchita Vens (Netherlands Cancer Institute, Amsterdam, The Netherlands), E98 cells were obtained from Prof. Dr. William Leenders (Radboud University Medical Center, Nijmegen, The Netherlands), and LN-751 (RRID: CVCL_3964) were generously made available by Prof. Dr. Monika Hegi (Centre Hospitalier Universitaire Vaudois, Lausanne, Switzerland). GSC lines were isolated from murine tumors that were generated by stereotactic injection of Lenti–Cre vector in the striatum of Egfr^vIII;p15^Ink4b/p16^Ink4aF/F (GSC750), Egfr^vIII;p15^Ink4b/p16^Ink4aF/F;Pten^F/F (GSC578) or Egfr^vIII;p15^Ink4b/p16^Ink4aF/F;Pten^F/F;Tp53^F/F (GSC556) mice, as previously described.
as §1

In a further series the test system is GSC578. The series is described as follows: Cell survival assay, glioma stem cell line. It counts as cell-based, murine. The conditions noted are these: GSC578 (EgfrvIII;p15Ink4b/p16Ink4a-/-;Pten-/-), Fig. 1C.
Description: as §2, §1

In the next series the test system is GSC556. The series is described as follows: Cell survival assay, glioma stem cell line. It counts as cell-based, murine. The following applies: GSC556 (EgfrvIII;p15Ink4b/p16Ink4a-/-;Pten-/-;Tp53-/-), Fig. 1C.
Description: as §2, §1

Series [3] can be described thus: Tolerability of oral dosing schedules in Abcb1a/b;Abcg2-/- mice. Format: in vivo.
Setting [4] is: E98 tumors, 5/10 mg/kg b.i.d.x7d monotherapy.
The mark [5] stands for this setting: adjuvant: 5/10 mg/kg b.i.d.x7d after RT + TMZ vs RT + TMZ alone.
Where [6] appears, read: recurrent E98 tumors after TMZ + RT, 20 mg/kg q.2d.x11d second-line.
[7] abbreviates: therapy-naive E98 tumors, 20 mg/kg q.2d.x11d monotherapy.

Consider `CCc1cccc(CC)c1NC(=O)c1ccn2c1CCc1cnc(Nc3ccc(N4CCN(C)CC4)cc3OC)nc1-2` [NTRC 0066-0], for which, in the series on P-gp, the “Inhibition of P-gp activity” value was “does not inhibit the activity of P-gp”. Moreover, the Survival result was “did not observe any delay in tumor growth (Fig. 4H) or survival” in series [1] (setting [4]), “not affected” in series [1] (setting [5]) and “did not result in reduced tumor growth (Fig. 4A) or improved survival” in [1] (setting [7]). For the same compound, the Tumor growth result was “did not observe any delay in tumor growth” in series [1] (setting [4]), “could not observe any effects on tumor growth” in [1] (adjuvant: 5/10 mg/kg b.i.d.x7d from day 3 after RT + TMZ (2 Gy + 10 mg/kg q.d.x2d) vs RT + TMZ alone) and “did not result in reduced tumor growth” in series [1] (setting [7]). The Time-to-recurrence result in series [1] (setting [5]) is listed as “not different between treatment groups”. For the same compound, the “Animals with tumor growth delay” value in series [1] (setting [6]) was 2 out of 7. Further, the Long-term survivors result in [1] (setting [6]) is “one long-term survivor”. The “Number of mitotic errors in tumors” value in series [2] is “did not increase the number of mitotic errors”. The IC50 (commonly the concentration at which inhibition is half-maximal) with U87 worked out at 31 nM; in the series on LN-428 it was 39 nM; with GSC750, 25 nM; in the series on GSC578, 46 nM; in the series with GSC556, 20 nM. In the series on MELpT-KNL1, the “Duration of reduction in MELpT-KNL1 foci in pro-/metaphase cells” value was “at least 24 h”. Further, the Tolerability of schedule entry in [3] (5 mg/kg p.o. morning + 10 mg/kg p.o. about 8 h later, 7 consecutive days) is given as “could safely administer”; in series [3] (20 mg/kg p.o. every other day for 11 days (q.2d.x11d)) it was “could safely be given”.
